# Data reported in patent publication US8445529B2, “Indole derivative having, carbamoyl group, ureido group and substituted oxy group” (Santen Pharmaceutical Co., Ltd., priority 2008, dated 2013).
# Molecular target: T1, IKKβ (Homo sapiens, UniProt O14920)
# T1 construct: purchased Upstate Biotechnology Inc. 14-485
# T1 sequence (O14920 1-756): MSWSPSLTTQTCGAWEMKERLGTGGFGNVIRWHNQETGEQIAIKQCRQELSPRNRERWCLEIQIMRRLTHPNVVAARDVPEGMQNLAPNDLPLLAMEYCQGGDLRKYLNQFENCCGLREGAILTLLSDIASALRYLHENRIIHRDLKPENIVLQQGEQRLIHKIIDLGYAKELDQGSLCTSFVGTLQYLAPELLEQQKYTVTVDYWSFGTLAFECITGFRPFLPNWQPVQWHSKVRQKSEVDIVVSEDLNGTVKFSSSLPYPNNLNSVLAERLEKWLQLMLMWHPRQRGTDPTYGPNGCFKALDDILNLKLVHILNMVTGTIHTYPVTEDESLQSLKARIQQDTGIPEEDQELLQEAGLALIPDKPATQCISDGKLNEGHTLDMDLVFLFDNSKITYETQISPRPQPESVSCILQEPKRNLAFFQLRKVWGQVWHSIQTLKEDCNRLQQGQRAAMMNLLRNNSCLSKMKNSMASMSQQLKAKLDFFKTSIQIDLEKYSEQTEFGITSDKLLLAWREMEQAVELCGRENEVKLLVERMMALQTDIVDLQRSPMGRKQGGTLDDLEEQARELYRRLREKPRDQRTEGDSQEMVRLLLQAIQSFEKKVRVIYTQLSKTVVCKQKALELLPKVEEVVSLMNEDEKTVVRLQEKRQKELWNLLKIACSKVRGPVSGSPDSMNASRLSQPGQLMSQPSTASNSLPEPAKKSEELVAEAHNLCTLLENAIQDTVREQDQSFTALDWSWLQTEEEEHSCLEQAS
# Assay: IKKβ inhibition assay by fluorescence polarization (IMAP kit)
# Format: biochemical
# Conditions: test compound at 1 μM; inhibition rate exceeding 100% is indicated as 100%
# Description: Details of the above will be described in detail in [Pharmacological Test] in Examples described below in this specification. IKKβ inhibition assay by fluorescence polarization was performed using IMAP™ IKKβ assay kit (manufactured by Molecular Devices Corporation, catalogue No. R8115) or IMAP™ FP Screening Express kit (manufactured by Molecular Devices Corporation, catalogue No. R8127).
# In order to evaluate IKKβ inhibitory activity of the present compounds, an IKKβ inhibition assay by a fluorescence polarization method was conducted. The assay was conducted using IMAP™ IKKβ assay kit (manufactured by Molecular Devices Corporation, catalogue No. R8115) or IMAP™ FP Screening Express kit (manufactured by Molecular Devices Corporation, catalogue No. R8127) in accordance with the protocol attached to each kit. The specific methods are described below.
# 1) Complete Reaction Buffer: a complete reaction buffer was so prepared to obtain a final composition of 10 mM Tris-HCL (pH 7.2), 10 mM magnesium chloride, 0.1% bovine serum albumin, and 1 mM dithiothreitol.
# 2) Substrate Working Solution: 400 nM substrate working solution was prepared by dissolving and diluting a fluorescein-labeled IKKβ substrate peptide (amino acid sequence: GRHDSGLDSMK) with the complete reaction buffer.
# 3) Enzyme Working Solution: 0.2 units/mL enzyme working solution was prepared by diluting IKKβ solution (manufactured by Upstate Biotechnology Inc., catalogue No. 14-485) with the complete reaction buffer.
# 4) ATP Working Solution: 8 μM ATP working solution was prepared by dissolving ATP into ultrapure water followed by diluting it with the complete reaction buffer.
# 5) IMAP binding solution: After diluting an IMAP binding buffer with ultrapure water, an IMAP binding solution was prepared by diluting an IMAP binding reagent with the diluted IMAP binding buffer.
# A test compound was dissolved in dimethyisulfoxide followed by diluting it with the complete reaction buffer to prepare 4 μM test compound solution.
# 1) To a 384-well plate, the test compound solution, the enzyme working solution, the substrate working solution, and the ATP working solution were added in an amount of 5 μL per well.
# 2) Incubation was performed at room temperature for 60 minutes under light shielding.
# 3) The IMAP binding solution was added in an amount of 60 μL per well.
# 4) Incubation was performed at room temperature for 30 minutes under light shielding.
# 5) Fluorescence polarization value of each well was measured by using Analyst™ HT (multimode plate reader manufactured by Molecular Devices Corporation) and Criterion Host Software v2.00 (manufactured by Molecular Devices Corporation).
# 6) Operations were performed in the same manner as in 1) to 5) except for changing the test compound to 0.4% dimethylsulfoxide. The obtained result was designated as a control.
# 7) Operations were performed in the same manner as in 1) to 5) except for changing the test compound and the enzyme working solution to 0.4% dimethylsulfoxide and the complete reaction buffer, respectively. The obtained result was designated as a background.
# An IKKβ inhibition rate (%) was calculated by the following equation.
# IKKβ inhibition rate (%)=100×{1-(fluorescence polarization value of test compound−fluorescence polarization value of background)/(fluorescence polarization value of control−fluorescence polarization value of background)}
row,inhibition at 1 µM [%],Structure (SMILES)
1,98,"CC(=O)Nc1ccc(Oc2ccc3c(C(N)=O)c(NC(N)=O)[nH]c3c2)cc1 [Compound No. 6-1, 6-(4-Acetylaminophenyloxy)-2-(aminocarbonylamino)indole-3-carboxamide]"
2,60,"COc1ccc(F)c2c(C(N)=O)c(NC(N)=O)[nH]c12 [Compound No. 1-4, 2-Aminocarbonylamino-4-fluoro-7-methoxyindole-3-carboxamide]"
3,100,"NC(=O)Nc1[nH]c2cc(Oc3ccc([N+](=O)[O-])cc3)ccc2c1C(N)=O [Compound No. 4-1, 2-Aminocarbonylamino-6-(4-nitrophenyloxy)indole-3-carboxamide]"
4,89,"NC(=O)Nc1[nH]c2cc(Oc3ccnc(Cl)c3)ccc2c1C(N)=O [Compound No. 4-3, 2-Aminocarbonylamino-6-(2-chloropyridine-4-yloxy)indole-3-carboxamide]"
5,78,"COc1cccc2c(C(N)=O)c(NC(N)=O)[nH]c12 [Compound No. 1-3, 2-Aminocarbonylamino-7-methoxyindole-3-carboxamide]"
6,87,"COc1c(-c2ccoc2)cc(F)c2c(C(N)=O)c(NC(N)=O)[nH]c12 [Compound No. 8-3, 2-Aminocarbonylamino-4-fluoro-6-(furan-3-yl)-7-methoxyindole-3-carboxamide]"
7,90,"NC(=O)Nc1[nH]c2cc(O)ccc2c1C(N)=O [Compound No. 2-1, 2-Aminocarbonylamino-6-hydroxyindole-3-carboxamide]"
8,95,"COc1ccc2c(C(N)=O)c(NC(N)=O)[nH]c2c1 [Compound No. 1-1, 2-Aminocarbonylamino-6-methoxyindole-3-carboxamide]"
9,91,"NC(=O)Nc1[nH]c2cc(OCC3CC3)ccc2c1C(N)=O [Compound No. 3-2, 2-Aminocarbonylamino-6-cyclopropylmethyloxyindole-3-carboxamide]"
10,92,"NC(=O)Nc1[nH]c2cc(Oc3ccc(Cl)cc3)ccc2c1C(N)=O [Compound No. 9-1, 2-Aminocarbonylamino-6-(4-chlorophenyloxy)indole-3-carboxamide]"
11,97,"Cc1cc([N+](=O)[O-])ccc1Oc1ccc2c(C(N)=O)c(NC(N)=O)[nH]c2c1 [Compound No. 4-6, 2-Aminocarbonylamino-6-(2-methyl-4-nitrophenyloxy)indole-3-carboxamide]"
12,91,"C=Cc1cc(F)c2c(C(N)=O)c(NC(N)=O)[nH]c2c1OC [Compound No. 8-2, 2-Aminocarbonylamino-4-fluoro-7-methoxy-6-vinylindole-3-carboxamide]"
